Our source for the Ki values is patent US7217702B2, “Selective antagonists of A2A adenosine receptors” (Adenosine Therapeutics, LLC, priority 2004, dated 2007).

For this assay, the target named is A2A adenosine receptor (Homo sapiens, UniProt P29274). The assay can be described thus: Human Ki of the compound tables. The format is binding. The note with it: receptor subtype not given.

pKi: −log10 of the molar value. Some results are limits rather than exact numbers.

Sequence of A2A adenosine receptor (P29274 whole entry): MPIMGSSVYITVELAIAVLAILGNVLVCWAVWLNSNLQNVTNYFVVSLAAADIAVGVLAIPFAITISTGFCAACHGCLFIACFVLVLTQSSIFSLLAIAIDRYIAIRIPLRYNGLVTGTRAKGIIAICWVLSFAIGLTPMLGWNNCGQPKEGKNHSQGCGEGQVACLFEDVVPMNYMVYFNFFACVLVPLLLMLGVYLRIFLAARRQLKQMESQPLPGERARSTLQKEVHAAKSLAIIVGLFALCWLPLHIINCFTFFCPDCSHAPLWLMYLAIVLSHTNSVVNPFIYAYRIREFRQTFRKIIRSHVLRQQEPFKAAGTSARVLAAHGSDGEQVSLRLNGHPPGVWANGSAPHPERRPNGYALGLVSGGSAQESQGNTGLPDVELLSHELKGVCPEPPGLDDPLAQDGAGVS

Take `Nc1nc(C#CC2(O)C3CC4CC(C3)CC2C4)nc2c1ncn2CCCO` (centres unmarked) [Compound 53]: the pKi was above 6.30. For `CCC(CC)Nc1nc(C#C[C@]2(O)CCC[C@@H](C)C2)nc2c1ncn2CC(C)C` [Compound 13, 9-Isobutyl-2-{2-[1(S)-hydroxy-3(R)-methyl-1-cyclohexyl]ethyn-1-yl}-N6-(3-pentyl)adenine] the value was above 6.30; for `C#CCn1cnc2c(N[C@@H](C)c3cccc4ccccc34)nc(C#C[C@]3(O)CCC[C@@H](C)C3)nc21` [Compound 35, 2-{2-[1(S)-Hydroxy-3(R)-methyl-1-cyclohexyl]ethyn-1-yl}-N6-[(s)-(−)-alpha-napthalen-1-yl-ethyl]-9-(propargyl)adenine], above 6.30; for `C#CCn1cnc2c(N)nc(C#CCC3CCN(C(=O)OC)CC3)nc21` [Compound 63, 2-{3-[1-(Methoxycarbanoyl)piperidin-4-yl]propyn-1-yl}-9-propargyladenine], above 7.00. The same measure for `C=CCn1cnc2c(NC(CC)CC)nc(C#C[C@]3(O)CCC[C@@H](C)C3)nc21` [Compound 16, 9-Allyl-2-{2-[1(S)-hydroxy-3(R)-methyl-1-cyclohexyl]ethyn-1-yl}-N6-(3-pentyl)adenine]: above 7.00. The same measure for `C#CCn1cnc2c(NCc3cccc(OC)c3)nc(C#C[C@]3(O)CCC[C@@H](C)C3)nc21` [Compound 36, 2-{2-[1(S)-Hydroxy-3(R)-methyl-1-cyclohexyl]ethyn-1-yl}-N6-(3-methoxybenzyl)-9-(propargyl)adenine]: above 7.00; for `C#CCn1cnc2c(N[C@@H](C)CC)nc(C#C[C@]3(O)CCC[C@@H](C)C3)nc21` [Compound 32, N6-[(S)-(+)-sec-Butyl]-2-{2-[1(S)-hydroxy-3(R)-methyl-1-cyclohexyl]ethyn-1-yl}-9-propargyl-adenine]: above 7.00; for `Nc1nc(C#CC2(O)C3CC4CC(C3)CC2C4)nc2c1ncn2CCO` (centres unmarked) [Compound 52, 2-{2-[Hydroxy-adamantan-2-yl]ethyn-1-yl}-9-(2-hydroxyethyl)adenine]: above 6.30. On to `CCCn1cnc2c(NC(CC)CC)nc(C#C[C@]3(O)CCC[C@@H](C)C3)nc21` [Compound 12, 2-{2-[1(S)-Hydroxy-3(R)-methyl-1-cyclohexyl]ethyn-1-yl}-N6-(3-pentyl)-9-propyladenine], for which the pKi is above 7.00. The same measure for `CCn1cnc2c(N)nc(C#CC3(O)C4CC5CC(C4)CC3C5)nc21` (centres unmarked) [Compound 40, 9-Ethyl-2-{2-[hydroxy-adamantan-2-yl]ethyn-1-yl}adenine]: above 7.00.

`C#CCCCn1cnc2c(NC(CC)CC)nc(C#C[C@]3(O)CCC[C@@H](C)C3)nc21` [Compound 18, 2-{2-[1(S)-Hydroxy-3(R)-methyl-1-cyclohexyl]ethyn-1-yl}-N6-(3-pentyl)-9-(pent-4-yne)adenine] had a pKi above 7.00.

Take `Cn1cnc2c(N)nc(C#CC3(O)C4CC5CC(C4)CC3C5)nc21` (centres unmarked) [Compound 39, 2-{2-[Hydroxy-adamantan-2-yl]ethyn-1-yl}-9-methyladenine]: the pKi is above 7.00. For `Nc1nc(C#CC2(O)C3CC4CC(C3)CC2C4)nc2c1ncn2CC1CCCC1` (centres unmarked) [Compound 47, 9-Cyclopentylmethyl-2-{2-[hydroxy-adamantan-2-yl]ethyn-1-yl}adenine] the value was above 6.30; for `C#CCn1cnc2c(N)nc(C#CC3(O)CC4CCC3C4)nc21` (single isomer, unassigned) [Compound 61, 2-{2-[Hydroxy-norbornan-2-yl]ethyn-1-yl}-9-propargyladenine], above 7.00; for `CCC(CC)Nc1nc(C#C[C@]2(O)CCC[C@@H](C)C2)nc2c1ncn2Cc1c(C)noc1C` [Compound 30, 9-(3,5-Dimethyl-isoxazol-4-ylmethyl)-2-{2-[1(S)-hydroxy-3(R)-methyl-1-cyclohexyl]ethyn-1-yl}-N6-(3-pentyl)adenine], above 7.00.

`CCC(CC)Nc1nc(C#C[C@]2(O)CCC[C@@H](C)C2)nc2c1ncn2Cc1ccccc1` [Compound 27, 9-Benzyl-2-{2-[1(S)-hydroxy-3(R)-methyl-1-cyclohexyl]ethyn-1-yl}-N6-(3-pentyl)adenine] had a pKi above 7.00.

Compound `C[C@@H]1CCC[C@@](O)(C#Cc2nc(NCC(c3ccccc3)c3ccccc3)c3ncn(C)c3n2)C1` [Compound 34, N6-(2-Diphenylethyl)-2-{2-[1(S)-hydroxy-3(R)-methyl-1-cyclohexyl]ethyn-1-yl}-9-methyladenine] showed a pKi above 6.30.

On to `C[C@@H]1CCC[C@@](O)(C#Cc2nc(N)c3ncn(CC#Cc4cccs4)c3n2)C1` [Compound 10], for which the pKi is above 6.30. For `Cc1noc(C)c1Cn1cnc2c(N)nc(C#C[C@]3(O)CCC[C@@H](C)C3)nc21` [Compound 8, 9-(3,5-Dimethyl-isoxazol-4-ylmethyl)-2-{2-[1(S)-hydroxy-3(R)-methyl-1-cyclohexyl]ethyn-1-yl}adenine] the value was above 7.00.

Compound `CCC(CC)Nc1nc(C#C[C@]2(O)CCC[C@@H](C)C2)nc2c1ncn2C1CCCC1` [Compound 15, 9-Cyclopentyl-2-{2-[1(S)-hydroxy-3(R)-methyl-1-cyclohexyl]ethyn-1-yl}-N6-(3-pentyl)adenine] showed a pKi above 7.00. The same measure for `CCC(CC)Nc1nc(C#C[C@]2(O)CCC[C@@H](C)C2)nc2c1ncn2CCO` [Compound 19, 9-(2-Hydroxyethyl)-2-{2-[1(S)-hydroxy-3(R)-methyl-1-cyclohexyl]ethyn-1-yl}-N6-(3-pentyl)adenine]: above 7.00; for `CCC(CC)Nc1nc(C#C[C@]2(O)CCC[C@@H](C)C2)nc2c1ncn2CC1CC1` [Compound 14, 9-Cyclopropylmethyl-2-{2-[1(S)-hydroxy-3(R)-methyl-1-cyclohexyl]ethyn-1-yl}-N6-(3-pentyl)adenine]: above 7.00. With `C#CCn1cnc2c(N)nc(C#CC3(O)CC4CCC3C4)nc21` (single isomer, unassigned) [Compound 60, 2-{2-[Hydroxy-norbornan-2-yl]ethyn-1-yl}-9-propargyladenine], the pKi was above 7.00. The same measure for `Nc1nc(C#CC2(O)C3CC4CC(C3)CC2C4)nc2c1ncn2C1CCC1` (centres unmarked) [Compound 49, 9-Cyclobutyl-2-{2-[hydroxy-adamantan-2-yl]ethyn-1-yl}adenine]: above 7.00; for `CCCCCCn1cnc2c(N)nc(C#CC3(O)C4CC5CC(C4)CC3C5)nc21` (centres unmarked) [Compound 42, 9-Hexyl-2-{2-[hydroxy-adamantan-2-yl]ethyn-1-yl}adenine]: above 6.00; for `C[C@@H]1CCC[C@@](O)(C#Cc2nc(N)c3ncn(CC#N)c3n2)C1` [Compound 4, 9-Acetonitrile-2-{2-[1(S)-hydroxy-3(R)-methyl-1-cyclohexyl]ethyn-1-yl}adenine]: above 7.00.

Turning to `CC[C@H](C)Nc1nc(C#C[C@]2(O)CCC[C@@H](C)C2)nc2c1ncn2Cc1c(C)noc1C` [Compound 33, N6-[(s)-(+)-sec-Butyl]-9-(3,5-dimethyl-isoxazol-4-ylmethyl)-2-{2-[1(S)-hydroxy-3(R)-methyl-1-cyclohexyl]ethyn-1-yl}adenine], the pKi is above 7.00. For `CC(C)Cn1cnc2c(N)nc(C#CC3(O)C4CC5CC(C4)CC3C5)nc21` (centres unmarked) [Compound 44, 2-{2-[Hydroxy-adamantan-2-yl]ethyn-1-yl}-9-isobutyl-adenine] the value was above 6.30; for `CCC(CC)Nc1nc(C#C[C@]2(O)CCC[C@@H](C)C2)nc2c1ncn2CC1OCCO1` [Compound 22, 9-([1,3]-Dioxolan-2-ylmethyl)-2-{2-[1(S)-hydroxy-3(R)-methyl-1-cyclohexyl]ethyn-1-yl}-N6-(3-pentyl)adenine], above 6.30; for `CCC(CC)Nc1nc(C#C[C@]2(O)CCC[C@@H](C)C2)nc2c1ncn2CCCO` [Compound 20, 2-{2-[1(S)-Hydroxy-3(R)-methyl-1-cyclohexyl]ethyn-1-yl}-9-(3-hydroxypropyl)-N6-(3-pentyl)adenine], above 6.30. For `C#CCCn1cnc2c(N)nc(C#CC3(O)C4CC5CC(C4)CC3C5)nc21` (centres unmarked) [Compound 62, 9-(But-3-ynyl)-2-{2-[hydroxy-adamantan-2-yl]ethyn-1-yl}adenine] the value was above 7.00; for `CCCn1cnc2c(N)nc(C#CC3(O)C4CC5CC(C4)CC3C5)nc21` (centres unmarked) [Compound 41, 2-{2-[Hydroxy-adamantan-2-yl]ethyn-1-yl}-9-propyladenine], above 7.00; for `CCOC(=O)Cn1cnc2c(NC(CC)CC)nc(C#C[C@]3(O)CCC[C@@H](C)C3)nc21` [Compound 25, 9-(Acetic acid ethyl ester)-2-{2-[1(S)-hydroxy-3(R)-methyl-1-cyclohexyl]ethyn-1-yl}-N6-(3-pentyl)adenine], above 6.30. For `Nc1nc(C#CC2(O)C3CC4CC(C3)CC2C4)nc2c1ncn2CC1CC1` (centres unmarked) [Compound 45, 9-Cyclopropylmethyl-2-{2-[hydroxy-adamantan-2-yl]ethyn-1-yl}adenine] the value was above 7.00. For `CCC(CC)Nc1nc(C#C[C@]2(O)CCC[C@@H](C)C2)nc2c1ncn2Cc1cccnc1` [Compound 28, 2-{2-[1(S)-Hydroxy-3(R)-methyl-1-cyclohexyl]ethyn-1-yl}-N6-(3-pentyl)-9-(pyridin-3-ylmethyl)adenine], the pKi is above 7.00. For the compound `Nc1nc(C#CC2(O)C3CC4CC(C3)CC2C4)nc2c1ncn2CC1CCC1` (centres unmarked) [Compound 46, 9-Cyclobutylmethyl-2-{2-[hydroxy-adamantan-2-yl]ethyn-1-yl}adenine], the negative logarithm of the Ki (pKi) is above 7.00. For `C#CCn1cnc2c(NCc3ccccn3)nc(C#C[C@]3(O)CCC[C@@H](C)C3)nc21` [Compound 37, 2-{2-[1(S)-Hydroxy-3(R)-methyl-1-cyclohexyl]ethyn-1-yl}-9-(propargyl)-N6-(pyridin-2-ylmethyl)adenine] the value was above 7.00.

`C[C@@H]1CCC[C@@](O)(C#Cc2nc(N)c3ncn(CC4CC4)c3n2)C1` [Compound 1, 9-Cyclopropylmethyl-2-{2-[1(S)-hydroxy-3(R)-methyl-1-cyclohexyl]ethyn-1-yl}adenine] gave a pKi above 7.00.
